Assay results taken from ChEMBL document CHEMBL1201862, “PubChem BioAssay data set” (2004).
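Briefly, cells in 96-well plates were exposed to five compound concentrations for 48 h, and endpoints were estimated by linear interpolation. At the GI50, growth is halved.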 Activity calls are given as the source filed them. No stated cut-off is given here; in the data, active = GI50 up to about 1.1 µM and inactive = higher.

How the values were obtained:
Assay in all cases: growth of human tumour cells (NCI), 48 h
[1] = test system: 786-0
[2] = test system: A498
[3] = test system: A549
[4] = test system: ACHN
[5] = test system: CAKI-1
[6] = test system: CCRF-CEM
[7] = test system: COLO 205
[8] = test system: DLD-1
[9] = test system: DMS-114
[10] = test system: DMS-273
[11] = test system: EKVX
[12] = test system: HCT-116
[13] = test system: HCT-15
[14] = test system: HL-60
[15] = test system: HOP-62
[16] = test system: HOP-92
[17] = test system: K562
[18] = test system: KM-20L2
[19] = test system: KM12
[20] = test system: LOX IMVI
[21] = test system: M14
[22] = test system: M19-MEL
[23] = test system: MOLT-4
[24] = test system: NCI-H23
[25] = test system: NCI-H460
[26] = test system: NCI-H522
[27] = test system: OVCAR-3
[28] = test system: OVCAR-4
[29] = test system: OVCAR-8
[30] = test system: RPMI-8226
[31] = test system: RXF 393
[32] = test system: SF-268
[33] = test system: SF-295
[34] = test system: SF-539
[35] = test system: SK-MEL-28
[36] = test system: SK-MEL-2
[37] = test system: SK-MEL-5
[38] = test system: SK-OV-3
[39] = test system: SN12C
[40] = test system: SNB-19
[41] = test system: SNB-75
[42] = test system: SNB-78
[43] = test system: SR
[44] = test system: SW-620
[45] = test system: TK-10
[46] = test system: U-251
[47] = test system: UACC-257
[48] = test system: UACC-62
[49] = test system: UO-31
[50] = test system: XF498

OC1(C(Sc2ccccc2)Sc2ccccc2)CCCCCC1
GI50 [1]: 22.4 µM (inactive)
GI50 [2]: 34 µM (inactive)
GI50 [3]: 28 µM (inactive)
GI50 [4]: 26 µM (inactive)
GI50 [5]: 12.2 µM (inactive)
GI50 [6]: 25.2 µM (inactive)
GI50 [7]: 23.6 µM (inactive)
GI50 [8]: 38.4 µM (inactive)
GI50 [9]: 27.1 µM (inactive)
GI50 [10]: 27.8 µM (inactive)
GI50 [11]: 21.2 µM (inactive)
GI50 [12]: 27.8 µM (inactive)
GI50 [13]: 24.4 µM
GI50 [14]: 24 µM (inactive)
GI50 [15]: 21.9 µM (inactive)
GI50 [16]: 28.6 µM (inactive)
GI50 [17]: > 10 µM (inactive)
GI50 [18]: 2.81 µM (inactive)
GI50 [19]: 34.9 µM (inactive)
GI50 [20]: 19.3 µM (inactive)
GI50 [21]: 18.7 µM (inactive)
GI50 [22]: 35.2 µM (inactive)
GI50 [23]: 28.6 µM (inactive)
GI50 [24]: 35.8 µM (inactive)
GI50 [25]: 28.2 µM (inactive)
GI50 [26]: 11.5 µM (inactive)
GI50 [27]: 20.9 µM (inactive)
GI50 [28]: 6.19 µM (inactive)
GI50 [29]: 38.8 µM (inactive)
GI50 [30]: 21.5 µM (inactive)
GI50 [31]: > 10 µM (inactive)
GI50 [32]: 33.1 µM (inactive)
GI50 [33]: 26.8 µM (inactive)
GI50 [34]: 21.9 µM (inactive)
GI50 [35]: 56.1 µM (inactive)
GI50 [36]: 18.1 µM (inactive)
GI50 [37]: 16.1 µM (inactive)
GI50 [38]: 22.5 µM (inactive)
GI50 [39]: 16.2 µM (inactive)
GI50 [40]: 14.1 µM (inactive)
GI50 [41]: 33.4 µM (inactive)
GI50 [42]: 74.1 µM (inactive)
GI50 [43]: 20.8 µM (inactive)
GI50 [44]: 26.2 µM (inactive)
GI50 [45]: 58.2 µM (inactive)
GI50 [46]: 21.8 µM (inactive)
GI50 [47]: 26.9 µM (inactive)
GI50 [48]: 11.5 µM (inactive)
GI50 [49]: 3.13 µM (inactive)
GI50 [50]: 13.6 µM (inactive)
